Data set [1] is described as follows: Luminescence Cell-Based Dose Retest to Confirm Inhibitors of Cancer Stem Cells. [Related pubchem assays (depositor defined):AID2717, AID2721]. It is filed as functional. Conditions: Homo sapiens.
Data set [2] can be described thus: cytotoxicity in HMLE control line with eGFP shRNA, dose response, counter-screen for HMLE_sh_ECad selective toxicity project, cell-based, HMLE_sh_eGFP, luminescence (AID 463074).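 Further: HMLE human mammary epithelial cells expressing control shRNA against eGFP.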 The data set is classed as functional, Homo sapiens.
The target in data set [3] is T1, High affinity choline transporter 1 (Homo sapiens, UniProt Q9GZV3).
T1 sequence (Q9GZV3 whole entry): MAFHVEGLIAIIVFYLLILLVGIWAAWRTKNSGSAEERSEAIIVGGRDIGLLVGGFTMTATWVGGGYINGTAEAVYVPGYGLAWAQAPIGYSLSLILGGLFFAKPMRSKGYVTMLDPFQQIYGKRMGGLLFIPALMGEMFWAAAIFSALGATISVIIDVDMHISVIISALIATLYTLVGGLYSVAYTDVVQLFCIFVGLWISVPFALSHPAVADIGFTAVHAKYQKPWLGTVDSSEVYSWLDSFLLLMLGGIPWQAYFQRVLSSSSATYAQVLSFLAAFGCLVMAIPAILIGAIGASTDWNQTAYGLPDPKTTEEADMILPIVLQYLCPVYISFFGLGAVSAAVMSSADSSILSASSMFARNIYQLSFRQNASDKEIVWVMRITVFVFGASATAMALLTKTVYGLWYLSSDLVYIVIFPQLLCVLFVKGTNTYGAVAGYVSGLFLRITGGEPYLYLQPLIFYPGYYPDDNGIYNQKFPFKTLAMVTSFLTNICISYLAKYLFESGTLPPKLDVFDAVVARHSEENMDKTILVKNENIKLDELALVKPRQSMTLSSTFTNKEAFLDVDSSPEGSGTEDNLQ
The data set can be described thus: CHT inhibitors, dose response, cell-based, 5-point CRC, membrane potential dye (AID 504840). It is filed as functional.

In data set [4] the test system is Streptococcus sp. 'group A'. The data set can be described thus: growth inhibition of control SK(-) GAS strain, dose response, counter-screen for streptokinase expression inhibitor project, luminescence, kanamycin, BacTiterGlo, confirmation (AID 1900). It is filed as functional, organism-based.
In data set [5] the test system is BJ. Description: cytotoxicity toward BJ-TERT fibroblasts, dose response, cell-based, RAS-independent, luminescence (AID 1933). It is filed as functional. The note with it: Homo sapiens.
For the next data set, the target named is T2, Streptokinase A (Streptococcus pyogenes serotype M1, UniProt P10520).
T2 sequence (P10520 whole entry): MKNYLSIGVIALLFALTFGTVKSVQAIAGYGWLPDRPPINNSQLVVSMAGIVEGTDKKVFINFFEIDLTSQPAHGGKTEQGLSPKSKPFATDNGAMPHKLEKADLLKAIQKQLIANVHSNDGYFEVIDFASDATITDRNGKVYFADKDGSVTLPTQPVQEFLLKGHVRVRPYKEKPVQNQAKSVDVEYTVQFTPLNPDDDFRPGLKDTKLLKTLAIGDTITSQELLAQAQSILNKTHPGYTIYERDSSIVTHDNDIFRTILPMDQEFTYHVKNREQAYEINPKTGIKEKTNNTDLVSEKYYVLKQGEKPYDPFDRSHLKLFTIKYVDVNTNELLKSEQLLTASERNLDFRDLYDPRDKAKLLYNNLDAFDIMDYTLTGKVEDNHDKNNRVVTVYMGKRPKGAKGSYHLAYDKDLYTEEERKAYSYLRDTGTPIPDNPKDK
The data set can be described thus: S. pyogenes streptokinase expression inhibitors, potency, dose response, plasminogen activation absorbance, OD405 (AID 1914).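 Further: secreted streptokinase activity via plasminogen activation per viability signal from cell pellet.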 It is filed as functional, Streptococcus pyogenes M1 GAS.

Data set [6] relates to BJ. The data set can be described thus: cells. Conditions: Homo sapiens. The data set is classed as functional, cell-based.
The subject of data set [7] is BJ. The data set can be described thus: cytotoxicity toward BJ-TERT-LT-ST fibroblasts, dose response, cell-based, RAS-independent, luminescence (AID 1935).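 Further: BJ fibroblasts immortalized with TERT plus LT and ST oncogenes.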 The data set is classed as functional. Conditions: Homo sapiens.
Data set [8] is described as follows: cytotoxicity toward DRD oncogenic fibroblasts, dose response, cell-based, non-viral oncogenic, luminescence (AID 1934). It is filed as functional. The note with it: Homo sapiens.
Another data set relates to Streptococcus. Description: Group A Streptococcus viability loss, dose response, counter-screen for streptokinase expression inhibitor project, luminescence, BacTiterGlo (AID 1915).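 Further: potency for reduction of bacterial viability or growth.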 The data set is classed as functional, organism-based.
For a further data set, the system named is Jurkat. The data set can be described thus: antigen receptor-induced NF-kB inhibitors, dose response, Jurkat, luciferase reporter, luminescence, B- and T-cell (AID 489004).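 Further: NF-kB luciferase reporter Jurkat cells stimulated with PMA plus ionomycin.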 The data set is classed as functional, cell-based. The note with it: Homo sapiens.
Data set [9] is described as follows: cytotoxicity in HEK-293T NF-kB-Luc cells, dose response, cytotoxicity control for B/T-cell NF-kB inhibitor project, cell-based, uHTS hits (AID 489019).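 Further: IC50 reflects cytotoxicity as loss of cell viability.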 The data set is classed as functional.
For data set [10], the target named is Heat shock protein HSP 90-alpha (Homo sapiens, UniProt P07900). The data set is classed as functional, organism-based.
Data set [11] concerns BJ. Description: cytotoxicity toward Ras-transformed BJeLR fibroblasts, dose response, cell-based, alamar blue fluorescence, cherrypicked samples (AID 2631).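 Further: confirmatory dose-response assay in RAS-dependent BJ fibroblasts engineered with TERT, LT and ST, with cytotoxicity read by fluorescence.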 The data set is classed as functional. The note with it: Homo sapiens.
In another data set the test system is INS1. The data set can be described thus: beta cell apoptosis inhibitors, cytokine rescue, dose response, luminescence, retest (AID 449756).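 Further: cell death triggered by IL-1 beta plus TNF-alpha plus IFN-gamma mixture; protective hits raise ATP signal compared with cytokine alone wells.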 The data set is classed as functional, cell-based. Conditions: Rattus norvegicus.
The target in the next data set is Galanin receptor type 3 (Homo sapiens, UniProt O60755). The data set can be described thus: Fluorescence-based cell-based primary high throughput dose response assay to identify antagonists of the Galanin Receptor 3 (GalR3). The data set is classed as functional.
Galanin receptor type 3, sequence (O60755 whole entry): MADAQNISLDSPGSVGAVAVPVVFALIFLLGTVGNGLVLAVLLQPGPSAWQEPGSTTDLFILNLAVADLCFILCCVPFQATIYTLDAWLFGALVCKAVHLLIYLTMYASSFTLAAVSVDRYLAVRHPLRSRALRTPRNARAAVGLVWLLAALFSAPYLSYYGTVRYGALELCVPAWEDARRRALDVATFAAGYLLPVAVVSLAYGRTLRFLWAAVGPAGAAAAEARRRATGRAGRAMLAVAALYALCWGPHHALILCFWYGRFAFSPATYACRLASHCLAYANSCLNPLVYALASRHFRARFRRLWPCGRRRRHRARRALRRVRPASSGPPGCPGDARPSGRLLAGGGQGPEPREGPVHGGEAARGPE
A short description of data set [12]: cells. It is filed as functional, cell-based. The note with it: HEK-CNG.
Data set [13] deals with T3, DNA repair protein RAD52 homolog (Homo sapiens, UniProt P43351).
T3 sequence (P43351 whole entry): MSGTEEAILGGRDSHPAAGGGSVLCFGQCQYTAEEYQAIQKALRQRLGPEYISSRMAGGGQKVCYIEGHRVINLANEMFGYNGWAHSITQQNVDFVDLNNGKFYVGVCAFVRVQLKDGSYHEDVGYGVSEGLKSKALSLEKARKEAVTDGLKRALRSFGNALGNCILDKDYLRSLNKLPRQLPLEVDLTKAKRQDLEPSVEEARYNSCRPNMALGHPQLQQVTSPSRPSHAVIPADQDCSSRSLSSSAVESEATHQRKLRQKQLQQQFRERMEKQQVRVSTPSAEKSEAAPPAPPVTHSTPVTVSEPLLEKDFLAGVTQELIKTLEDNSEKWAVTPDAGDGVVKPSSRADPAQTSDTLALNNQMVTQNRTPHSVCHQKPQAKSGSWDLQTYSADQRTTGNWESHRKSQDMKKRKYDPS
The data set is classed as functional, biochemical.

The target in the next data set is Paired box protein Pax-8 (Homo sapiens, UniProt Q06710). The data set can be described thus: inhibitors of PAX8-driven TPO luciferase reporter, dose response, RMG-I cells, cherry-pick (AID 687027).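 Further: luciferase reporter driven by Pax8 target thyroperoxidase promoter measured by SteadyGlo luminescence.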 It is filed as functional, cell-based.
Paired box protein Pax-8, sequence (Q06710 whole entry): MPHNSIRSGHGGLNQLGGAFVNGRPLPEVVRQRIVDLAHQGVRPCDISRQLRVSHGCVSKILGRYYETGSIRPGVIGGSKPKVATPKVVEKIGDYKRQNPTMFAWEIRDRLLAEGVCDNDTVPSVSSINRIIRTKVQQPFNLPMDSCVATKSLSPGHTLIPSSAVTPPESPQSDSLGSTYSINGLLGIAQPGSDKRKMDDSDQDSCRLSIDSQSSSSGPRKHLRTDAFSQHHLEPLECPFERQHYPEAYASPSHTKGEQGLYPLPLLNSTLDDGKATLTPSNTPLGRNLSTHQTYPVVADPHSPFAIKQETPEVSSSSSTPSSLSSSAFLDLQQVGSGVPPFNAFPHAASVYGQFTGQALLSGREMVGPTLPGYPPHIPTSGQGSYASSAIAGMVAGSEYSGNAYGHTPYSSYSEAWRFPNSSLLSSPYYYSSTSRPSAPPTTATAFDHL
Data set [14] is described as follows: NIH-3T3 fibroblast cytotoxicity, dose response, cytotoxicity control, cell-based, fluorescence, Alamar Blue, secondary assay (AID 2327).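 Further: NIH-3T3 mouse fibroblasts cultured with fluconazole at 8 µg/mL.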 The data set is classed as functional.
Data set [15] is described as follows: C. albicans growth with fluconazole, confirmation, fluorescence, retest (AID 2467). It is filed as functional, cell-based.
Another data set addresses T4, Estrogen receptor (Homo sapiens, UniProt P03372).
T4 sequence (P03372 whole entry): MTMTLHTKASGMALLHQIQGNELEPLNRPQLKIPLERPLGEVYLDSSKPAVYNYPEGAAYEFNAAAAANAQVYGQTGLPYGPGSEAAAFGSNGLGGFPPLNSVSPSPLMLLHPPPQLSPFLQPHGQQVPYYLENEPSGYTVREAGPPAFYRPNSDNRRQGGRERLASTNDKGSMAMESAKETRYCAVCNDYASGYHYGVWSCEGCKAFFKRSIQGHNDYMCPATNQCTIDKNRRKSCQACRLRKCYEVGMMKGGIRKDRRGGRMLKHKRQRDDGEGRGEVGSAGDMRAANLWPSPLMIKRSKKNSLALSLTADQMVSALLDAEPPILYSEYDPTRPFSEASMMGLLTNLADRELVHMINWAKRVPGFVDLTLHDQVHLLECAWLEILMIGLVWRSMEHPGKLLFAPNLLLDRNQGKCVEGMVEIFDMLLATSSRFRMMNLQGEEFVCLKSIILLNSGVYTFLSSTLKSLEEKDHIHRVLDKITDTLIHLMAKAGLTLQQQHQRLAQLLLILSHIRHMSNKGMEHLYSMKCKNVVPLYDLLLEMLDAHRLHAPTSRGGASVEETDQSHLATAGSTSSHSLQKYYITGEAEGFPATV

Data set [16] can be described thus: THP-1 cell cytotoxicity, dose response, cytotoxicity control for non-replicating M. tuberculosis project (AID 489025). The data set is classed as functional.
Data set [17] in a line: HepG2 cell cytotoxicity, dose response, cytotoxicity control for non-replicating M. tuberculosis project (AID 489018). It is filed as functional. The note with it: Mycobacterium tuberculosis.
Data set [18] in a line: Vero E6 cell cytotoxicity, dose response, cytotoxicity control for non-replicating M. tuberculosis project, secondary assay (AID 492998). The data set is classed as functional, VeroE6. Conditions: Vero C1008.
The nature of data set [19]: cells. It is filed as functional.
Data set [20] has as its target Dual specificity protein phosphatase 3 (Homo sapiens, UniProt P51452). Description: SAR VHR1 Fluorescent Assay for In Vitro dose response studies Set 3. [Related pubchem assays (depositor defined):AID1654, AID1661, AID1878]. It is filed as functional.
The target of another data set is T5, Cytochrome P450 1A2 (Homo sapiens, UniProt P05177).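 Further: PubChem cytochrome P450 panel assay, CYP1A2 panel member.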
T5 sequence (P05177 whole entry): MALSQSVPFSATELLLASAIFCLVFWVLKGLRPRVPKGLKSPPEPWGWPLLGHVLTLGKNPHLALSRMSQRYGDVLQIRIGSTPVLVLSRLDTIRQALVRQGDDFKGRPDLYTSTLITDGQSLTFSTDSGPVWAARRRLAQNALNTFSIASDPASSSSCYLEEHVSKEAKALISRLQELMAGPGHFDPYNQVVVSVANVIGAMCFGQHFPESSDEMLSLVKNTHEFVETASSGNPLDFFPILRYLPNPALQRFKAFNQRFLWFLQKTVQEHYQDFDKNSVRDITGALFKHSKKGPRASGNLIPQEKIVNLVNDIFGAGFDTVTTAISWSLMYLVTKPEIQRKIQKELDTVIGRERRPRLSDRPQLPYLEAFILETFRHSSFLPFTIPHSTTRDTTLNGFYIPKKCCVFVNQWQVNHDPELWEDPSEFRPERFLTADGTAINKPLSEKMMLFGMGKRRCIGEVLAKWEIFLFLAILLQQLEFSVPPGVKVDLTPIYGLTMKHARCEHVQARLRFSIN

SMILES strings stand for the structures. The source made the active and inactive calls.

Dual specificity protein phosphatase 3, sequence (P51452 whole entry): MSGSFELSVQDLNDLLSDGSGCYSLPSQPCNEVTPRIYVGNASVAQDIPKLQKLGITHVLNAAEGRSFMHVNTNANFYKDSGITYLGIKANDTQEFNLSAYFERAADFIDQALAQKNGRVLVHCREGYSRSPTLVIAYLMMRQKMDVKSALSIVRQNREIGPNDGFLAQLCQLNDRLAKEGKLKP

On to `COc1ccc(CN(C)c2ncnc3sccc23)c(OC)c1OC`, for which the concentration at half-maximal activity (AC50) in data set [1] is 15.8 µM (active); in data set [2], 27.4 µM (active). In addition, in [3], the IC50 was 13.8 µM (active).
Consider `CCCCCCCCCCCCn1ccc(=N)cc1`, for which the EC50 in data set [4] was 3.09 µM (active); in the data set with BJ [5], 2.72 µM (active); on Streptokinase A it was 17.6 µM (active); in the data set on BJ [6], 2.85 µM (inconclusive); in the data set with BJ [7], 5.37 µM (inconclusive); in [8], 8.01 µM (active). The 50% effective concentration (EC50) was 10.3 µM (active) with Streptococcus, 949 nM (active) with BJ [11] and > 29.9 µM (inactive) in “cells [12]”. Further, the IC50 with Jurkat was 920 nM (active); in [9], 66.1 µM (inactive); at Galanin receptor type 3 it was 1.28 µM (active). In addition, the AC50 in [10] was 10.8 µM (active); in the data set with INS1, 293 nM (active); in data set [13], 14.8 µM (active); on Paired box protein Pax-8 it was 3.74 µM (active).
Turning to `COc1cccc2sc(Nc3nnc(-c4ccc(F)cc4)o3)nc12`, the EC50 in data set [14] was > 160 µM (inconclusive); in [4] it was 0.29 µM (active); in data set [15] it was 1.72 µM (active); in the data set with Streptococcus it was 2.25 µM (active). The IC50 was 25 µM (active) at Estrogen receptor, 15.3 µM (active) in the data set “cells [19]” and 7.3 µM (active) in [20]. Further, the cytotoxic concentration (CC50) is 14.5 µM (active) in data set [16], > 20 µM (active) in data set [17] and 9.26 µM (active) in data set [18].
Consider `N[C@H](C(=O)O)c1nnn[nH]1`, for which the AC50 result on Cytochrome P450 1A2 is listed as “inconclusive”.

Source of the values: ChEMBL document CHEMBL1201862, “PubChem BioAssay data set” (2004).
